In US20240101546A1, “HETEROARYL-ACETYLENES, PHARMACEUTICAL COMPOSITIONS THEREOF, AND THEIR THERAPEUTIC APPLICATIONS” (Eubulus Biotherapeutics Inc., priority 2020, published 2024):

These compounds were tested on hepatocellular carcinoma cell line Hub-7 (assay: Cell proliferation assay, Hub-7 (CELL-TITER GLO)). Conditions: Hub-7 cells, 24 h incubation, cell viability by CELL-TITER GLO, top concentration 10 μM; read-out: EC50, Inhibition of Hub-7 Cell Proliferation.
Type: cell-based
Protocol: The activity of a compound was determined in a cell proliferation assay using the hepatocellular carcinoma cell line Hub-7. Cells (4,000 cells per well) were seeded in a 96-well tissue culture plate. After incubated overnight, the compound was added at predetermined concentrations, starting with 10 μM and followed by 3-fold serial dilution. After the cells were incubated for 24 h, cell viability was determined using a CELL-TITER GLO® assay. The CELL-TITER GLO® reagent (50 μL) was added to each well and the luminescence was measured by a multimode microplate reader after a brief period of shaking. EC50 values were determined for the compound. The results are summarized in Table 1, wherein A represents a value no greater than 200 nM, B represents a value greater than 200 nM but no greater than 1 μM, C represents a value greater than 1 μM but no greater than 5 μM, and D represents a value greater than 5 μM.

| SMILES | EC50 [nM] |
| --- | --- |
| C#Cc1nc(C(=O)NCCc2ccc(-c3cccc4nccnc34)cc2)cs1 [Compound C11, 2-Ethynyl-N-(4-(quinoxalin-5-yl)phenethyl)thiazole-4-carboxamide] | 200 to 1000 |
| C#Cc1nc(C(=O)NCCc2ccc(-c3ccccc3C(=O)NC)cc2)cs1 [Compound C12, 2-Ethynyl-N-(2-(2′-(methylcarbamoyl)-[1,1′-biphenyl]-4-yl)ethyl)thiazole-4-carboxamide] | 1000 to 5000 |
| C#Cc1nc(C(=O)NCCc2ccc(-c3cccc4c3C(=O)NC4)cc2)cs1 [Compound C13, 2-Ethynyl-N-(4-(3-oxoisoindolin-4-yl)phenethyl)thiazole-4-carboxamide] | 200 to 1000 |
| C#Cc1nc(C(=O)NCCc2ccc(-c3cccc4c3C(=O)C(=O)N4)cc2)cs1 [Compound C14, N-(4-(2,3-Dioxoindolin-4-yl)phenethyl)-2-ethynylthiazole-4-carboxamide] | 200 to 1000 |
| C#Cc1nc(C(=O)NCCc2ccc(-c3ccccc3S(C)(=O)=O)cc2)cs1 [Compound C15, 2-Ethynyl-N-(2-(2′-(methylsulfonyl)-[1,1′-biphenyl]-4-yl)ethyl)thiazole-4-carboxamide] | 200 to 1000 |
| C#Cc1nc(C(=O)NCCc2ccc(-c3cccc4ccnc(O)c34)cc2)cs1 [Compound C16, 2-Ethynyl-N-(4-(1-hydroxyisoquinolin-8-yl)phenethyl)thiazole-4-carboxamide] | 200 to 1000 |
| C#Cc1nc(C(=O)NCCc2ccc(-c3cccc4c3CNC4=O)cc2)cs1 [Compound C17, 2-Ethynyl-N-(4-(1-oxoisoindolin-4-yl)phenethyl)thiazole-4-carboxamide] | ≤ 200 |
| C#Cc1nc(C(=O)NCCc2ccc(-c3cccc4c3C(=O)CC4)cc2)cs1 [Compound C18, 2-Ethynyl-N-(4-(3-oxo-2,3-dihydro-1H-inden-4-yl)phenethyl)thiazole-4-carboxamide] | 200 to 1000 |
| C#Cc1nc(C(=O)NCCc2ccc(-c3cncc4ncsc34)cc2)cs1 [Compound C19, 2-Ethynyl-N-(4-(thiazolo[4,5-c]pyridin-7-yl)phenethyl)thiazole-4-carboxamide] | 200 to 1000 |
| C#Cc1nc(C(=O)NCCc2ccc(-c3ccccc3S(=O)(=O)NC)cc2)cs1 [Compound C20, 2-Ethynyl-N-(2-(2′-(N-methylsulfamoyl)-[1,1′-biphenyl]-4-yl)ethyl)thiazole-4-carboxamide] | 200 to 1000 |
| C#Cc1nc(C(=O)NCCc2ccc(-c3cccc4cnccc34)cc2)cs1 [Compound C21, 2-Ethynyl-N-(4-(isoquinolin-5-yl)phenethyl)thiazole-4-carboxamide] | ≤ 200 |
| C#Cc1nc(C(=O)NCCc2ccc(-c3cccc4c3CN(C)C4=O)cc2)cs1 [Compound C22, 2-Ethynyl-N-(4-(2-methyl-1-oxoisoindolin-4-yl)phenethyl)thiazole-4-carboxamide] | 200 to 1000 |
| C#Cc1nc(C(=O)NCCc2ccc(-c3cccc4ncccc34)cc2)cs1 [Compound C23, 2-Ethynyl-N-(4-(quinolin-5-yl)phenethyl)thiazole-4-carboxamide] | 200 to 1000 |
| C#Cc1nc(C(=O)NCCc2ccc(-c3cccc4ncncc34)cc2)cs1 [Compound C24, 2-Ethynyl-N-(4-(quinazolin-5-yl)phenethyl)thiazole-4-carboxamide] | ≤ 200 |
| C#Cc1nc(C(=O)NCCc2ccc(-c3ccc4scnc4c3)cc2)cs1 [Compound C25, N-(4-(Benzo[d]thiazol-5-yl)phenethyl)-2-ethynylthiazole-4-carboxamide] | 200 to 1000 |
| C#Cc1nc(C(=O)NCCc2cccc(-c3cccc4c3CC(=O)N4C)c2)cs1 [Compound C26, 2-Ethynyl-N-(3-(1-methyl-2-oxoindolin-4-yl)phenethyl)thiazole-4-carboxamide] | 1000 to 5000 |
| C#Cc1nc(C(=O)NCCc2cccc(-c3cccc4c3CC(=O)N4)c2)cs1 [Compound C27, 2-Ethynyl-N-(3-(2-oxoindolin-4-yl)phenethyl)thiazole-4-carboxamide] | 200 to 1000 |
| C#Cc1nc(C(=O)NCc2ccc(-c3cccc4[nH]ccc34)cc2)cs1 [Compound C28, N-(4-(1H-Indol-4-yl)benzyl)-2-ethynylthiazole-4-carboxamide] | 1000 to 5000 |
| C#Cc1nc(C(=O)NCCc2cccc(-c3cccc4nn(C)cc34)c2)cs1 [Compound C29, 2-Ethynyl-N-(3-(2-methyl-2H-indazol-4-yl)phenethyl)thiazole-4-carboxamide] | 200 to 1000 |
| C#Cc1nc(C(=O)NCCc2cccc(-c3cccc4c3cnn4C)c2)cs1 [Compound C30, 2-Ethynyl-N-(3-(1-methyl-1H-indazol-4-yl)phenethyl)thiazole-4-carboxamide] | 1000 to 5000 |
| C#Cc1nc(C(=O)NCCc2ccc(-c3cccc4scnc34)cc2)cs1 [Compound C31, N-(4-(Benzo[d]thiazol-4-yl)phenethyl)-2-ethynylthiazole-4-carboxamide] | 200 to 1000 |
| C#Cc1nc(C(=O)NCCc2ccc(-c3cccc4nn(C)cc34)cc2)cs1 [Compound C32, 2-Ethynyl-N-(4-(2-methyl-2H-indazol-4-yl)phenethyl)thiazole-4-carboxamide] | 200 to 1000 |

| SMILES | EC50 [nM] |
| --- | --- |
| C#Cc1nc(C(=O)NCCc2ccc(-c3cccc4c3cnn4C)cc2)cs1 [Compound C33, 2-Ethynyl-N-(4-(1-methyl-1H-indazol-4-yl)phenethyl)thiazole-4-carboxamide] | 200 to 1000 |
| C#Cc1nc(C(=O)NCCc2ccc(-c3cccc4ncsc34)cc2)cs1 [Compound C34, N-(4-(Benzo[d]thiazol-7-yl)phenethyl)-2-ethynylthiazole-4-carboxamide] | ≤ 200 |
| C#Cc1nc(C(=O)NCCc2cccc(-c3cccc4c3ccn4C)c2)cs1 [Compound C35, 2-Ethynyl-N-(3-(1-methyl-1H-indol-4-yl)phenethyl)thiazole-4-carboxamide] | 200 to 1000 |
| C#Cc1nc(C(=O)NCCc2cccc(-c3cccc4[nH]ccc34)c2)cs1 [Compound C36, N-(3-(1H-Indol-4-yl)phenethyl)-2-ethynylthiazole-4-carboxamide] | 200 to 1000 |
| C#Cc1nc(C(=O)NCc2ccc(-c3cccc4c3CC(=O)N4)cc2)cs1 [Compound C37, 2-Ethynyl-N-(4-(2-oxoindolin-4-yl)benzyl)thiazole-4-carboxamide] | 1000 to 5000 |
| C#Cc1nc(C(=O)NCCc2cccc(-c3cccnc3)c2)cs1 [Compound C38, 2-Ethynyl-N-(3-(pyridin-3-yl)phenethyl)thiazole-4-carboxamide] | 1000 to 5000 |
| C#Cc1nc(C(=O)NCCc2cccc(-c3cccc4[nH]ncc34)c2)cs1 [Compound C39, N-(3-(1H-Indazol-4-yl)phenethyl)-2-ethynylthiazole-4-carboxamide] | 200 to 1000 |
| C#Cc1nc(C(=O)NCc2ccc(-c3cccc4[nH]ncc34)cc2)cs1 [Compound C40, N-(4-(1H-Indazol-4-yl)benzyl)-2-ethynylthiazole-4-carboxamide] | 1000 to 5000 |
| C#Cc1nc(C(=O)NCCc2ccc(-c3ccn(C)n3)cc2)cs1 [Compound C41, 2-Ethynyl-N-(4-(1-methyl-1H-pyrazol-3-yl)phenethyl)thiazole-4-carboxamide] | 1000 to 5000 |
| C#Cc1nc(C(=O)NCCc2ccc(-c3ccc4ncsc4c3)cc2)cs1 [Compound C42, N-(4-(Benzo[d]thiazol-6-yl)phenethyl)-2-ethynylthiazole-4-carboxamide] | 200 to 1000 |
| C#Cc1nc(C(=O)NCCc2ccc(-c3cccc4c3CC(=O)N4C)cc2)cs1 [Compound C43, 2-Ethynyl-N-(4-(1-methyl-2-oxoindolin-4-yl)phenethyl)thiazole-4-carboxamide] | 200 to 1000 |
| C#Cc1nc(C(=O)NCc2ccc3ccccc3n2)cs1 [Compound C44, 2-ethynyl-N-(quinolin-2-ylmethyl)thiazole-4-carboxamide] | ≤ 200 |
| C#Cc1nc(C(=O)NCCc2ccccc2C#N)cs1 [Compound C45, N-(2-Cyanophenethyl)-2-ethynylthiazole-4-carboxamide] | 1000 to 5000 |
| C#Cc1nc(C(=O)NCc2cccc(CC(=O)OC)c2)cs1 [Compound C46, Methyl 2-(3-((2-ethynylthiazole-4-carboxamido)methyl)phenyl)acetate] | 200 to 1000 |
| C#Cc1nc(C(=O)NCc2cccc(CC(N)=O)c2)cs1 [Compound C47, N-(3-(2-Amino-2-oxoethyl)benzyl)-2-ethynylthiazole-4-carboxamide] | 1000 to 5000 |
| C#Cc1nc(C(=O)NCCc2ccc(-c3cccc4c3CC(=O)N4)cc2)cs1 [Compound C48, 2-Ethynyl-N-(4-(2-oxoindolin-4-yl)phenethyl)thiazole-4-carboxamide] | 200 to 1000 |
| C#Cc1nc(C(=O)NCCc2ccc(-c3cccc4[nH]ncc34)cc2)cs1 [Compound C49, N-(4-(1H-Indazol-4-yl)phenethyl)-2-ethynylthiazole-4-carboxamide] | ≤ 200 |
| C#Cc1nc(C(=O)NCCc2ccc(-c3cccc4c3ccn4C)cc2)cs1 [Compound C50, 2-Ethynyl-N-(4-(1-methyl-1H-indol-4-yl)phenethyl)thiazole-4-carboxamide] | ≤ 200 |
| C#Cc1nc(C(=O)NCCc2ccc(-c3cccc4[nH]ccc34)cc2)cs1 [Compound C51, N-(4-(1H-Indol-4-yl)phenethyl)-2-ethynylthiazole-4-carboxamide] | 200 to 1000 |
| C#Cc1nc(C(=O)NCc2cccc(Cl)c2)c(C)s1 [Compound C52, N-(3-Chlorobenzyl)-2-ethynyl-5-methylthiazole-4-carboxamide] | 200 to 1000 |
| C#Cc1nc(C(=O)NCCc2ccc(-c3cscn3)cc2)cs1 [Compound C53, 2-Ethynyl-N-(4-(thiazol-4-yl)phenethyl)thiazole-4-carboxamide] | 200 to 1000 |
